Experimental findings from patent US20250025439A1, “DERIVATIVES OF NIFUROXAZIDE FOR USE IN THE TREATMENT OF MITOCHONDRIAL DISORDERS AND NEURODEGENERATIVE DISEASES” (priority 2021, published 2025) are described below.

The test addresses T1, Pleckstrin homology-like domain family B member 2 (PHLDB2) (Homo sapiens, UniProt Q86SQ0).
T1 construct: Protein extracts from human fibroblasts were incubated with magnetic beads; endogenous in cells; host or cells: human fibroblast lysate
T1 sequence (Q86SQ0 1-1253): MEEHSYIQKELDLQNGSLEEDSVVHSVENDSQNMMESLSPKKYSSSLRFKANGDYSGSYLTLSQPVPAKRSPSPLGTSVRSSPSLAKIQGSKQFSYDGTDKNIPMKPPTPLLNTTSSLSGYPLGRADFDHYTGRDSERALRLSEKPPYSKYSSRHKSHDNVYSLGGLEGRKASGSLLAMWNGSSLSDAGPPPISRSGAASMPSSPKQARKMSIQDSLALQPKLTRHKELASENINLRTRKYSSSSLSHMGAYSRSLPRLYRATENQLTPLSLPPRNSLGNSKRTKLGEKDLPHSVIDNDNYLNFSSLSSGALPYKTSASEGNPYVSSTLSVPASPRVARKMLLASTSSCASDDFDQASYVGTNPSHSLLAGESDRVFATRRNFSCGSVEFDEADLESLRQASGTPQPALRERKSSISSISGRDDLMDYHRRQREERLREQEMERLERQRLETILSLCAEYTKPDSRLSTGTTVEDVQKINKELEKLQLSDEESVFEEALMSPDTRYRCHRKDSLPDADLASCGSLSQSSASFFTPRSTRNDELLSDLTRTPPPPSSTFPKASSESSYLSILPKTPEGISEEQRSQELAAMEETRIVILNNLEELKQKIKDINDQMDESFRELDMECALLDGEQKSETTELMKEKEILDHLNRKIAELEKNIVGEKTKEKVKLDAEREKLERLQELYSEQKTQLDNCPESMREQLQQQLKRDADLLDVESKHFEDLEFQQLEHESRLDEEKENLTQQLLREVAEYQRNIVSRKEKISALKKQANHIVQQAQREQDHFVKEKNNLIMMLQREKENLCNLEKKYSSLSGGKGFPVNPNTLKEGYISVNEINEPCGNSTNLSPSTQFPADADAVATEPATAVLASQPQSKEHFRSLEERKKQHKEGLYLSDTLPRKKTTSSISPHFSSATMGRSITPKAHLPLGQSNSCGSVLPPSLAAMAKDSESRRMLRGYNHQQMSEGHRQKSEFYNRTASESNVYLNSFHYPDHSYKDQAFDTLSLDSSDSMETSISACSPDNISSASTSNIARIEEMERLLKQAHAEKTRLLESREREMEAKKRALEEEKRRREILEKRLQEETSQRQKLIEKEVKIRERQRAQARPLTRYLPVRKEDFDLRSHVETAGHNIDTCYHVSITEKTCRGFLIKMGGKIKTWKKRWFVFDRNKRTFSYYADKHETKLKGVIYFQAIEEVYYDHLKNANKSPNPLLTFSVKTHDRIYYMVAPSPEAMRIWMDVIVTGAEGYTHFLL
Nature of the test: Affinity chromatography with NFX-beads and mass spectrometry. Format: binding. The following applies: spectral counts, NFX coupled beads vs beads alone, human fibroblast extracts.

As for `O=C(N/N=C/c1ccc([N+](=O)[O-])o1)c1ccc(O)cc1` [NFX, (E)-4-hydroxy-N′-((5-nitrofuran-2-yl)methylene)benzohydrazide], the Fold change is on record as 91.67.
